# According to PubChem BioAssay (NCI):
#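 Step 1: Grow cells in 96-well plates. Step 2: Expose to compound for 48 hours at 5 concentrations. Step 3: Interpolate endpoints linearly; if unreached, use highest concentration. Definition used: TGI = concentration required for complete inhibition of growth.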
# Key:
# Experiment in all cases: inhibition of tumour cell growth, NCI panel, 48 h
# HCC-2998 colon = test system: HCC-2998 colon
# IGROV1 ovarian = test system: IGROV1 ovarian
# PC-3 prostate = test system: PC-3 prostate
# KM12 colon = test system: KM12 colon
# K-562 leukemia = test system: K-562 leukemia
# ACHN renal = test system: ACHN renal
# SK-OV-3 ovarian = test system: SK-OV-3 ovarian
# RXF 393 renal = test system: RXF 393 renal
# OVCAR-4 ovarian = test system: OVCAR-4 ovarian
# MALME-3M melanoma = test system: MALME-3M melanoma
# DU-145 prostate = test system: DU-145 prostate
# OVCAR-8 ovarian = test system: OVCAR-8 ovarian
# NCI-H522 lung = test system: NCI-H522 lung
# SNB-19 CNS = test system: SNB-19 CNS
# HCT-116 colon = test system: HCT-116 colon
# SK-MEL-28 melanoma = test system: SK-MEL-28 melanoma
# SNB-75 CNS = test system: SNB-75 CNS
# HOP-92 NSCLC = test system: HOP-92 NSCLC
# SF-295 CNS = test system: SF-295 CNS
# OVCAR-5 ovarian = test system: OVCAR-5 ovarian
# MDA-MB-435 = test system: MDA-MB-435
# A549 NSCLC = test system: A549 NSCLC
# TK-10 renal = test system: TK-10 renal
# RPMI-8226 leukemia = test system: RPMI-8226 leukemia
# SK-MEL-2 melanoma = test system: SK-MEL-2 melanoma
# 786-0 renal = test system: 786-0 renal
# NCI-H23 lung = test system: NCI-H23 lung
# OVCAR-3 ovarian = test system: OVCAR-3 ovarian
# EKVX NSCLC = test system: EKVX NSCLC
# HCT-15 colon = test system: HCT-15 colon
# MDA-N = test system: MDA-N
# MDA-MB-231 breast = test system: MDA-MB-231 breast
# HS 578T breast = test system: HS 578T breast
# UACC-257 melanoma = test system: UACC-257 melanoma
# MCF7 breast = test system: MCF7 breast
# UO-31 renal = test system: UO-31 renal
# BT-549 breast = test system: BT-549 breast
# CAKI-1 renal = test system: CAKI-1 renal
# HOP-62 NSCLC = test system: HOP-62 NSCLC
# U251 CNS = test system: U251 CNS
# T-47D breast = test system: T-47D breast
# SW-620 colon = test system: SW-620 colon
# M14 melanoma = test system: M14 melanoma
# SK-MEL-5 melanoma = test system: SK-MEL-5 melanoma
# HT29 colon = test system: HT29 colon
# SF-268 CNS = test system: SF-268 CNS
# COLO 205 colon = test system: COLO 205 colon
# UACC-62 melanoma = test system: UACC-62 melanoma
# MOLT-4 leukemia = test system: MOLT-4 leukemia
# NCI-H460 lung = test system: NCI-H460 lung
# NCI/ADR-RES ovarian = test system: NCI/ADR-RES ovarian
# A498 renal = test system: A498 renal
structure (smiles),measurement,setting,value
N#CC(Cc1ccccc1)N(CCC1=CCCCC1)Cc1ccccc1 (configuration not stated),TGI,HCC-2998 colon,> 100 µM
same,TGI,IGROV1 ovarian,> 100 µM
same,TGI,PC-3 prostate,> 100 µM
same,TGI,KM12 colon,> 100 µM
same,TGI,K-562 leukemia,> 100 µM
same,TGI,ACHN renal,> 100 µM
same,TGI,SK-OV-3 ovarian,> 100 µM
same,TGI,RXF 393 renal,> 100 µM
same,TGI,OVCAR-4 ovarian,> 100 µM
same,TGI,MALME-3M melanoma,> 100 µM
same,TGI,DU-145 prostate,> 100 µM
same,TGI,OVCAR-8 ovarian,> 100 µM
same,TGI,NCI-H522 lung,68 µM
same,TGI,SNB-19 CNS,> 100 µM
same,TGI,HCT-116 colon,> 100 µM
same,TGI,SK-MEL-28 melanoma,> 100 µM
same,TGI,SNB-75 CNS,> 100 µM
same,TGI,HOP-92 NSCLC,> 100 µM
same,TGI,SF-295 CNS,> 100 µM
same,TGI,OVCAR-5 ovarian,> 100 µM
same,TGI,MDA-MB-435,91.1 µM
same,TGI,A549 NSCLC,> 100 µM
same,TGI,TK-10 renal,> 100 µM
same,TGI,RPMI-8226 leukemia,63.5 µM
same,TGI,SK-MEL-2 melanoma,> 100 µM
same,TGI,786-0 renal,> 100 µM
same,TGI,NCI-H23 lung,> 100 µM
same,TGI,OVCAR-3 ovarian,> 100 µM
same,TGI,EKVX NSCLC,> 100 µM
same,TGI,HCT-15 colon,> 100 µM
same,TGI,MDA-N,> 100 µM
same,TGI,MDA-MB-231 breast,> 100 µM
same,TGI,HS 578T breast,> 100 µM
same,TGI,UACC-257 melanoma,> 100 µM
same,TGI,MCF7 breast,> 100 µM
same,TGI,UO-31 renal,> 100 µM
same,TGI,BT-549 breast,> 100 µM
same,TGI,CAKI-1 renal,> 100 µM
same,TGI,HOP-62 NSCLC,> 100 µM
same,TGI,U251 CNS,> 100 µM
same,TGI,T-47D breast,> 100 µM
same,TGI,SW-620 colon,> 100 µM
same,TGI,M14 melanoma,> 100 µM
same,TGI,SK-MEL-5 melanoma,51.9 µM
same,TGI,HT29 colon,> 100 µM
same,TGI,SF-268 CNS,> 100 µM
same,TGI,COLO 205 colon,66.4 µM
same,TGI,UACC-62 melanoma,> 100 µM
same,TGI,MOLT-4 leukemia,90.6 µM
same,TGI,NCI-H460 lung,> 100 µM
same,TGI,NCI/ADR-RES ovarian,> 100 µM
same,TGI,A498 renal,> 100 µM
